One assay has as its system H1299. Nature of the assay: Cellular proliferation assay (Alamar blue), H1299. In kind it is cell-based. The conditions noted are these: Homo sapiens, NCI-H1299, H1299 cells; 10% FCS; 72 h with compound; Alamar blue 4 h; read-out: pIC50 H1299 (converted). The protocol: (§1) Cellular proliferation of these compounds was tested on a panel of different cell lines in the presence of 10% FCS serum (37° C. and 5% (v/v) CO2). In a first step these cells were seeded and incubated for 24 hours in the absence of compound. In the second step the cells were incubated for 72 hours with the compounds to be tested for 72 hours. The viable cell number was finally assessed in a standard Alamar blue cell viability assay.
(§2) The viable cell number was assessed by incubation for either 4 h (HCT-116, H1299) 6 h (U87-MG) or 24 h (A2780, PC3, MDA-MB-231) with Alamar blue (Resazurin 9 μg/ml, K-Ferrocyanide 90 μM, K-Ferricyanide 90 μM) and the converted fluorescent product was quantified on a fluorescent plate readed (544 nm/590 nm). Effect of the compounds is calculated as of on control cells.
Background: The colour change of resazurin is a common sign of viable cells or microbes.

For a further assay, the system named is HCT-116. Kind of assay: Cellular proliferation assay (Alamar blue), HCT-116. In kind it is cell-based. The settings on record: Homo sapiens; HCT-116 cells; 10% FCS; 72 h with compound; Alamar blue 4 h; read-out: pIC50 HCT-116 (converted). As for the experimental part: as §1, §2
The subject of a further assay is MDA-MB-231. Nature of the assay: Cellular proliferation assay (Alamar blue), MDA-MB-231. In kind it is cell-based. The conditions noted are these: Homo sapiens, MDA-MB-231, MDA-MB-231 cells; 10% FCS; 72 h with compound; Alamar blue 24 h; read-out: pIC50 MDA/MB231 (converted). As for the experimental part: as §1, §2
For the next assay, the system named is PC3. Nature of the assay: Cellular proliferation assay (Alamar blue), PC3. In kind it is cell-based. The conditions noted are these: Homo sapiens, PC-3, PC-3 cells; 10% FCS; 72 h with compound; Alamar blue 24 h; read-out: pIC50 PC-3 (converted). The protocol:
as §1, §2

A further assay concerns the target T1, PLK4 (h) (Homo sapiens, UniProt O00444).
T1 sequence (O00444 1-970): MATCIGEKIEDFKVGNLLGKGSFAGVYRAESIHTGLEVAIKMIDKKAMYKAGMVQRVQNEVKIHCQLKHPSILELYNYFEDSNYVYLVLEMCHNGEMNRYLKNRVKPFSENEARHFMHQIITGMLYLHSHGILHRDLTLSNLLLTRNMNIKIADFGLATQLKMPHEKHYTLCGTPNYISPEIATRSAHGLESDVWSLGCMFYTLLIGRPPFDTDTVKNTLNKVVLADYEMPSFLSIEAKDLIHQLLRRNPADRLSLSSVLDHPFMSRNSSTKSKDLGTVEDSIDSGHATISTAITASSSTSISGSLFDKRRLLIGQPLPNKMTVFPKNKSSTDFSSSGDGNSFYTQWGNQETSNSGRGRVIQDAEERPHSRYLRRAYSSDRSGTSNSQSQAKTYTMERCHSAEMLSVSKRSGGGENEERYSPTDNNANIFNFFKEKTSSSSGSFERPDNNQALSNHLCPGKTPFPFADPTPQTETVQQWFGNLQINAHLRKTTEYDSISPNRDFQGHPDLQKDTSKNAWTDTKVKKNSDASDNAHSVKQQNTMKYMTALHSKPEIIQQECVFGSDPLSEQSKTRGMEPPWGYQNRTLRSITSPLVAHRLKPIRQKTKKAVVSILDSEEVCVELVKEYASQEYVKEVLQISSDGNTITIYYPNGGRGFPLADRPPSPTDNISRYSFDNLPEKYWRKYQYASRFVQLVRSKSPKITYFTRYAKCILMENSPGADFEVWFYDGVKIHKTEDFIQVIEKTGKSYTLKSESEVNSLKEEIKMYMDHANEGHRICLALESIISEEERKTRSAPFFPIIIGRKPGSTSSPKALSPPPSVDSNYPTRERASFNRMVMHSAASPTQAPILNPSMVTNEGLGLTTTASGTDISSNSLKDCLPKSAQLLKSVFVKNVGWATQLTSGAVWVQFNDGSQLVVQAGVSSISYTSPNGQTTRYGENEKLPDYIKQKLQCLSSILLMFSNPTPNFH
Nature of the assay: PLK-4 human kinase scintillation proximity assay (SPA). The settings on record: 1 μM ATP, 60 minutes at r.t., read-out: PLK4 pIC50 (converted). In kind it is biochemical. As for the experimental part:
The in vitro inhibition of a panel of kinases was assessed using either the scintillation proximity assay (SPA) as described by Cook, N. D. et al., Advances in Experimental Medicine and Biology (1991), 36; p. 525-528.
In the SPA technology the activity of the kinase of interest is measured using an appropriate biotinylated substrate that is incubated with the aforementioned kinase protein in the presence of (^33P) radiolabeled ATP. (^33P) Phosphorylation of the substrate is subsequently measured through binding of the phosphorylated substrate to streptavidine coated beads that are based on the scintillant poly(vinyl toluene) (PVT-Beads). The scintillation intensity is detected by imaging on Leadseeker.
All kinases are pre-diluted to a 10× working concentration prior to addition into the assay. The composition of the dilution buffer for each kinase is detailed below.
In a final reaction volume of 30 μl, PLK4 (h) (19 μg/ml) is incubated with 50 mM Hepes pH 8.0, 10 mM MgCl2, 50 mM NaCl, 1 mM NaF, 1 mM DTT, 10 μM of peptide Biotin-RPRGQRDSSYYWE-OH, 1 μM ATP and 2 nM [γ-^33P-ATP] (6.0 μCi/ml). After incubation of 60 minutes at r.t., the reaction is stopped by addition of 40 μL of stop solution containing 8.7 mM EDTA, BSA 0.17%, 0.17% Triton X-100, 1.7 mg/ml SPA beads (GE-healthcare). The plate is centrifuged and read for Scintillation imaging on Leadseeker.
On the technique in general: SPA uses beads or plates that emit light when radiolabelled molecules are held near them.

For another assay, the system named is U87-MG. Nature of the assay: Cellular proliferation assay (Alamar blue), U87-MG. The class given is cell-based. The conditions noted are these: Homo sapiens, U-87 MG; U87-MG cells; 10% FCS; 72 h with compound; Alamar blue 6 h; read-out: pIC50 U87MG (converted). As for the experimental part: as §1, §2
The subject of another assay is A2780. Nature of the assay: Cellular proliferation assay (Alamar blue), A2780. The conditions noted are these: Homo sapiens, A2780, A2780 cells; 10% FCS; 72 h with compound; Alamar blue 24 h; read-out: pIC50 A2780 (converted). The class given is cell-based. As for the experimental part: as §1, §2

`COc1ccc2cc1OCCCC(=O)N(C)CCN(C)Cc1c[nH]c3ncnc(c13)N2` [Compound 1]: the IC50 in the assay with H1299 was greater than 10 µM; in the assay with HCT-116, greater than 10 µM; with MDA-MB-231 it was greater than 10 µM; with PC3, greater than 10 µM; on PLK4 (h), 0.126 µM; in the assay with U87-MG it was greater than 10 µM. The IC50 with A2780 is greater than 10 µM.

`CN1CCN(C)C(=O)CCCCOc2cccc(c2)Nc2ncnc3[nH]cc(c23)C1` [Compound 2]: the IC50 in the assay with H1299 was greater than 10 µM; in the assay with HCT-116, greater than 10 µM; in the assay on MDA-MB-231, greater than 10 µM; with PC3 it was greater than 10 µM; on PLK4 (h) it was 3.16 µM; in the assay with U87-MG, greater than 10 µM. Also, in the assay with A2780, the IC50 is greater than 10 µM.

For the compound `COc1ccc2cc1OCC(=O)N[C@H](CO)CN(C)CCCc1c[nH]c3ncnc(c13)N2` [Compound 3], the IC50 is greater than 10 µM in the assay with H1299; greater than 10 µM with HCT-116; greater than 10 µM in the assay with MDA-MB-231; greater than 10 µM in the assay with PC3; 1.58 µM at PLK4 (h); greater than 10 µM in the assay on U87-MG. For the same compound, in the assay on A2780, the IC50 was greater than 10 µM.

In the case of `COc1ccc2cc1CN(C)CCC(=O)N(C)CCCc1c[nH]c3ncnc(c13)N2` [Compound 4], the IC50 in the assay on H1299, with HCT-116, with MDA-MB-231, with PC3, at PLK4 (h) and in the assay on U87-MG was greater than 10 µM each time. Besides, the IC50 with A2780 is greater than 10 µM.

Consider `COc1ccc2cc1CN(C)CCCC(=O)N(C)CCCc1c[nH]c3ncnc(c13)N2` [Compound 5], for which the IC50 with H1299, with HCT-116, in the assay with MDA-MB-231, with PC3, on PLK4 (h) and in the assay on U87-MG was greater than 10 µM each time. Besides, in the assay on A2780, the IC50 was greater than 10 µM.

As for `COc1ccc2cc1OCCCNC(=O)CN(C)Cc1c[nH]c3ncnc(c13)N2` [Compound 6], the IC50 in the assay on H1299 was 1.58 µM; in the assay on HCT-116 it was 1.26 µM; in the assay with MDA-MB-231, 5.01 µM; with PC3, 3.98 µM; at PLK4 (h), 0.501 µM; in the assay with U87-MG, 1.58 µM. For the same compound, the IC50 in the assay with A2780 was 1.58 µM.

With `CN1CCN(C)C(=O)CN(C)C(=O)CCc2cccc(c2)Nc2ncnc3[nH]cc(c23)C1` [Compound 8], the IC50 in the assay with H1299, in the assay with HCT-116, in the assay with MDA-MB-231, with PC3, at PLK4 (h) and with U87-MG was greater than 10 µM in each case. Also, the IC50 with A2780 was greater than 10 µM.

As to `CN1CCN(c2ccc3cc2OCCCC(=O)N(C)CCCN(C)Cc2c[nH]c4ncnc(c24)N3)CC1` [Compound 102], the IC50 in the assay on H1299 was 2.51 µM; with HCT-116, 6.31 µM; with MDA-MB-231, greater than 10 µM; in the assay with PC3 it was 5.01 µM; at PLK4 (h), 3.98 µM; in the assay on A2780, 6.31 µM.

With `CN1CCN(c2ccc3cc2OCCCCC(=O)N2CCN(CC2)Cc2c[nH]c4ncnc(c24)N3)CC1` [Compound 108], the IC50 was greater than 10 µM in the assay with H1299; greater than 10 µM in the assay on HCT-116; greater than 10 µM in the assay with MDA-MB-231; greater than 10 µM with PC3; 7.94 µM on PLK4 (h); greater than 10 µM with A2780.

`CN1CCN(c2ccc3cc2OCCCC(=O)N2CCN(CC2)Cc2c[nH]c4ncnc(c24)N3)CC1` [Compound 109]: the IC50 in the assay on H1299, in the assay on HCT-116, in the assay with MDA-MB-231, with PC3, on PLK4 (h) and in the assay on A2780 was greater than 10 µM each time.

For `CN1CCCN(C)C(=O)COc2cc(ccc2NC(=O)Nc2cc(Cl)cc(Cl)c2)Nc2ncnc3[nH]cc(c23)C1` [Compound 115], the IC50 was 1.58 µM in the assay on H1299; 0.794 µM with HCT-116; greater than 10 µM with MDA-MB-231; greater than 10 µM with PC3; 0.158 µM at PLK4 (h); 1 µM in the assay with A2780.

Regarding `CN1CCCN(C)C(=O)COc2cc(ccc2OCC(=O)N2CCOCC2)Nc2ncnc3[nH]cc(c23)C1` [Compound 117], the IC50 is greater than 10 µM in the assay with H1299; greater than 10 µM in the assay with HCT-116; greater than 10 µM in the assay on MDA-MB-231; greater than 10 µM in the assay on PC3; 0.0501 µM on PLK4 (h); 3.98 µM in the assay with A2780.

Consider `Cc1nc2c3c(c[nH]c3n1)CN(C)CCCN(C)C(=O)COc1cc(ccc1Cl)N2` [Compound 148], for which the IC50 in the assay on H1299 was 3.98 µM; in the assay with HCT-116, 5.01 µM; in the assay on MDA-MB-231 it was 10 µM; with PC3 it was 5.01 µM; in the assay on U87-MG, 3.16 µM; with A2780 it was 1.58 µM.

With `CCOCCOc1cc(OC)c2cc1OCC(=O)N(C)CCCN(C)Cc1c[nH]c3ncnc(c13)N2` [Compound 151], the IC50 in the assay with H1299, with HCT-116, with MDA-MB-231, in the assay on PC3, with U87-MG and with A2780 was greater than 10 µM in each case.

As to `COc1ccc2cc1N(C)CC(=O)N(C)CCCN(C)Cc1c[nH]c3ncnc(c13)N2` [Compound 153], the IC50 with H1299 was 3.98 µM; with HCT-116, 1.58 µM; in the assay with MDA-MB-231, 7.94 µM; with PC3 it was 6.31 µM; in the assay on U87-MG, 3.16 µM; in the assay on A2780, 2 µM.

`CN1CCCN(C)C(=O)COc2cc(ccc2OCCOc2cc(C(F)(F)F)ccn2)Nc2ncnc3[nH]cc(c23)C1` [Compound 154]: the IC50 in the assay with H1299 was 0.631 µM; in the assay on HCT-116 it was 0.316 µM; with MDA-MB-231, 5.01 µM; in the assay with PC3, 5.01 µM; in the assay on U87-MG, 1 µM; with A2780, 0.251 µM.

As to `CN1CCCN(C)C(=O)COc2cc(ccc2OCCNc2ncccn2)Nc2ncnc3[nH]cc(c23)C1` [Compound 159], the IC50 in the assay with H1299 was 6.31 µM; in the assay with HCT-116 it was 2 µM; with MDA-MB-231 it was greater than 10 µM; in the assay with PC3, 7.94 µM; in the assay with U87-MG, 3.16 µM; in the assay on A2780 it was 1.58 µM.

(Values after patent US8318731B2, “Pyrrolopyrimidines” (Janssen Pharmaceutica NV, priority 2007, dated 2012).)
